# Columns and labels:
# Experiment in all cases: MIC determination on agar (method of Steers et al.)
# E. rhusiopathiae = assay type: cell-based, Erysipelothrix rhusiopathiae
# Experimental: (§1) A brain-heart medium and agar (Difco Laboratories, Detroit, Mich.) were used. Sensitivity tests were performed on Mueller-Hinton agar (Diagnostics Pasteur, Marne LaCoquette, France). All of the incubations were performed at 37° C.
# (§2) The disk diffusion test with disks containing 30 μg of vancomycin or 30 μg of teicoplanin (Diagnostics Pasteur) was used for the initial screening. The method of Steers et al. with 10^4 CFU per spot was used to determine the MIC of the antibiotics (Steers E. et al., Antibiot. Chemother. (Basel) 1959, 9: 307-11)
# [1] = system: isolates of E. faecium and E. faecalis resistant to high concentrations of vancomycin; assay type: cell-based; conditions: 15 isolates resistant to high concentrations of vancomycin, including V583-2 and UMH-1
# From the text: Bacterial strains: 39 isolates of E. faecium (28 strains) and E. faecalis (11 strains) resistant to low and high concentrations of vancomycin and sensitive to teicoplanin were studied (Table II). Among these strains 24 isolates including E. faecalis V583 (Sahm D. et al., Antimicrob. Agents Chemother. 1989, 33: 1588-91) and E. faecium D366 (Gutmnann L. et al., Antimicrob. Agents Chemother. 1992, 36: 77-80) were resistant to low concentrations of vancomycin on the basis of a disk sensitivity test. […] The control strains were well-characterized strains of entercocci belonging to the phenotypes A and C and hybridizing with the probes VanA and VanC, respectively. In particular there are 6 clinical isolates of E. faecium highly resistant to vancomycin and to teicoplanin, including BM4147. The strains of E. gallinarum including […] belonging to class C were also used as controls. Strains of E. casseliflavus are also used as controls, including the strain ATCC 25788, which are isolates intrinsically resistant to low levels of vancomycin and sensitive to teicoplanin (Leclercq R. et al., Antimicrob. Agents Chemother. 1992, 36: 2005-8).
# A brain-heart medium and agar (Difco Laboratories, Detroit, Mich.) were used. Sensitivity tests were performed on Mueller-Hinton agar (Diagnostics Pasteur, Marne LaCoquette, France). All of the incubations were performed at 37° C. […]
# Leuconostoc. sp. = assay type: cell-based, Leuconostoc mesenteroides
# Experimental: as §1, §2
# E. gallinarum = assay type: cell-based
# Experimental: as §1, §2
# Pediococcus spp. = assay type: cell-based
# Experimental: as §1, §2
# Lactobacillus spp. = assay type: cell-based
# Experimental: as §1, §2
# E. casseliflavus = assay type: cell-based
# Experimental: as §1, §2
# [2] = system: Enterococcus spp. (susceptible); assay type: cell-based
# Experimental: as §1, §2
# E. faecalis = assay type: cell-based, Enterococcus faecalis
# Experimental: as §1, §2
# E. faecium = assay type: cell-based, Enterococcus faecium
# Experimental: as §1, §2
# [3] = E. gallinarum(3), phenotypic class C, genotypic class C
compound,measurement,setting,value
"CN[C@H](CC(C)C)C(=O)N[C@H]1C(=O)N[C@@H](CC(N)=O)C(=O)N[C@H]2C(=O)N[C@H]3C(=O)N[C@H](C(=O)N[C@H](C(=O)O)c4cc(O)cc(O)c4-c4cc3ccc4O)[C@H](O)c3ccc(c(Cl)c3)Oc3cc2cc(c3O[C@@H]2O[C@H](CO)[C@@H](O)[C@H](O)[C@H]2O[C@H]2C[C@](C)(N)[C@H](O)[C@H](C)O2)Oc2ccc(cc2Cl)[C@H]1O [Vancomycin, vancomycin]",MIC,E. rhusiopathiae; Erysipelothrix rhusiopathiae,> 1 µg/mL
same,MIC,[1],≥ 128 µg/mL
same,MIC,Leuconostoc. sp.; Leuconostoc mesenteroides,> 1 µg/mL
same,MIC,E. gallinarum; [3],8 µg/mL
same,MIC,"E. gallinarum; Enterococcus gallinarum, GALLINARUM",8 µg/mL
same,MIC,Pediococcus spp.; Pediococcus,> 1 µg/mL
same,MIC,Lactobacillus spp.; Lactobacillus,> 1 µg/mL
same,MIC,"E. casseliflavus; Enterococcus casseliflavus, E. casseliflavus (Table I, strain not given)",8 µg/mL
same,MIC,"E. casseliflavus; Enterococcus casseliflavus, E. casseliflavus(2), phenotypic class C, genotype NC",4 to 8 µg/mL
same,MIC,[2]; Enterococcus,0.5 to 2 µg/mL
same,MIC,"E. faecalis; Enterococcus faecalis, ATCC29212, E. faecalis strain ATCC 29212",2 µg/mL
same,MIC,"E. faecalis; Enterococcus faecalis, E. faecalis strain UMH-1",1020 µg/mL
same,MIC,"E. faecalis; Enterococcus faecalis, E. faecalis strain V583",64 µg/mL
same,MIC,"E. faecalis; Enterococcus faecalis, E. faecalis strain V583-2",1020 µg/mL
same,MIC,"E. faecalis; Enterococcus faecalis, E. faecalis strain V583-C1",2 µg/mL
same,MIC,"E. faecalis; Enterococcus faecalis, E. faecalis(11), phenotypic class B, genotypic class B",4 to 1020 µg/mL
same,MIC,"E. faecium; Enterococcus faecium, ATCC19434, E. faecium strain ATCC 19434",1 µg/mL
same,MIC,"E. faecium; Enterococcus faecium, E. faecium strain BM4147",1020 µg/mL
same,MIC,"E. faecium; Enterococcus faecium, E. faecium strain D366",32 µg/mL
same,MIC,"E. faecium; Enterococcus faecium, E. faecium strain MT10R",2 µg/mL
same,MIC,"E. faecium; Enterococcus faecium, E. faecium(28), phenotypic class B, genotypic class B",4 to 256 µg/mL
teicoplanin,MIC,E. rhusiopathiae; E. rhusiopathiae(1),>1.000 µg/mL
same,MIC,Leuconostoc. sp.; Leuconostoc. sp.(1),>1.000 µg/mL
same,MIC,E. gallinarum; E. gallinarum strain BM4174,1 µg/mL
same,MIC,E. gallinarum; [3],1 µg/mL
same,MIC,Pediococcus spp.; Pediococcus spp.(2),>1.000 µg/mL
same,MIC,Lactobacillus spp.; Lactobacillus spp.(8),>1.000 µg/mL
same,MIC,"E. casseliflavus; E. casseliflavus (Table I, strain not given)",1 µg/mL
same,MIC,"E. casseliflavus; E. casseliflavus(2), phenotypic class C, genotype NC",0.5 to 1 µg/mL
same,MIC,"[2]; Enterococcus spp.(10), phenotypic class Susceptible",0.25 µg/mL
same,MIC,E. faecalis; E. faecalis strain ATCC 29212,0.5 µg/mL
same,MIC,E. faecalis; E. faecalis strain UMH-1,1.0 µg/mL
same,MIC,E. faecalis; E. faecalis strain V583,0.5 µg/mL
same,MIC,E. faecalis; E. faecalis strain V583-2,1.0 µg/mL
same,MIC,E. faecalis; E. faecalis strain V583-C1,0.5 µg/mL
same,MIC,"E. faecalis; E. faecalis(11), phenotypic class B, genotypic class B",0.5 to 1 µg/mL
same,MIC,E. faecium; E. faecium strain ATCC 19434,1 µg/mL
same,MIC,E. faecium; E. faecium strain BM4147,512 µg/mL
same,MIC,E. faecium; E. faecium strain D366,0.5 µg/mL
same,MIC,E. faecium; E. faecium strain MT10R,0.25 µg/mL
same,MIC,"E. faecium; E. faecium(28), phenotypic class B, genotypic class B",0.5 to 1 µg/mL

# Reference: patent US6569622B1, “Nucleic acids encoding a protein conferring an inducible resistance to glycopeptide, particularly in gram-positive bacteria” (Institut Pasteur, priority 1992, dated 2003)
